Earlier results as cited in US20070025931A1, “Powdery preparations containing 2.4.6-trianilino-p-(carbo-2'-ethylhexyl-1'-oxi)-1.3.5-triazine” (BASF Aktiengesellschaft, priority 2004, published 2007).

Conditions: at 314 nm

absorbance coefficient: > 1500
Structure (SMILES): CCCCC(CC)COC(=O)c1ccc(Nc2nc(Nc3ccc(C(=O)OCC(CC)CCCC)cc3)nc(Nc3ccc(C(=O)OCC(CC)CCCC)cc3)n2)cc1 (stereo not shown) [Uvinul® T150, 2,4,6-Trianilino-p-(carbo-2′-ethylhexyl-1′-oxy)-1,3,5-triazine]
